Test results taken from patent US10166236B2, “Pharmaceutical formulations comprising substituted pyrazolo[5,1-c]pyrido[4,3-e][1,2,4]triazines for treating lysosomal storage disorders” (Perlara PBC, priority 2016, dated 2019).

Experiments:
[1] = tested on: Coriell GM18453 (I1061T/I1061T) cells; assay: Filipin staining of cholesterol in NPC patient fibroblasts; format: cell-based, human; details: 10 μM; for amount of cytoplasmic free/unesterified cholesterol as visualized by filipin staining, relative to vehicle control: 48 hr incubation, FIG. 1
Description: Compound 1 was tested in vitro for its effect on cholesterol localization in NPC fibroblasts. The following experiments utilized Coriell GM18453 (I1061T/I1061T) cells which are immortalized cell lines prepared from NPC patient fibroblasts. These cells have a known deficiency in cholesterol esterification. Compound 1 (FIG. 1B), U18666A (positive control, FIG. 1C), and DMSO (vehicle control, FIG. 1A) were individually dispensed into 96 well In Vitro Scientific glass bottom black walled plates using the Echo acoustic liquid handler for the final concentrations indicated. Cells were suspended in media (DMEM, 5% FBS, 1% P/S, 2 mM L-glutamine) and then added to each well at 1750 cells per well. The final concentration of Compound 1 and […] was 10 μM. After a 48 hr incubation cells were fixed and stained with filipin using components from the Cholesterol Cell Based Detection Kit from Cayman. Filipin was used at a final concentration of 50 μg/mL. Cells were imaged using the ImageXpress from Molecular Devices and analyzed with MetaXpress. […] The experiment was repeated in GM18453 cells except that filipin staining was assessed in one set of wells every 24 hours for a total of five days. FIG. 2A provides an exemplary photomicrograph of a cells treated with vehicle control. There were no notable changes to the filipin staining of the vehicle-treated over the five day culture period, FIG. 2B-2F are representative photomicrographs of the Compound 1-treated cells after 1-5 days in culture, respectively.

NPC1 null worms = assay: Egg count in NPC1 null nematodes (rescue of nematode model of NPC); format: in vivo, C. elegans; details: Day 1 adults; for number of eggs per adult worm relative to DMSO control or SAHA: with or without supplemental cholesterol, p<0.001 relative to DMSO, Student's t-test
Description: This experiment tested the ability of Compound 1 to rescue NPC-1 null nematodes. A population of NPC1 null worms was scaled up on large petri plates (100 mm or 60 mm) to produce a large population of gravid adults. One day prior to assay, the adult worms were bleached to obtain all eggs. Eggs were allowed to hatch overnight in M9 by rocking tubes. On day of assay, the presence of L1 larvae was confirmed. A lawn of HB101 bacteria were grown on NGM agar plates (4 ml). The plates were prepared either with or without exogenous cholesterol. […] An additional set of plates prepared with 25% cremaphor alone was used as a second vehicle control. Fifty to seventy L1 larvae were added to each plate and incubated at room temperature for two days. On day 3, L1 worms had matured into Day 1 adults bearing row of eggs. Eggs were counted microscopically and the average number of eggs per adult worm for each incubation condition was calculated. […] There was no statistically significant difference between treatment with DMSO control in the 25% cremaphor carrier relative to the carrier alone (data not shown).

Compound: CN(C)CCCn1ccc2c(nnc3c(-c4ccc(F)cc4)cnn32)c1=O [Compound 1, 11-[3-(Dimethylamino)propyl]-5-(p-fluorophenyl)-2.3.7.8.11-pentazatricyclo[7.4.0.0^2,6]trideca-1(9),3,5,7,12-pentaen-10-one]
- amount of cytoplasmic free/unesterified cholesterol as visualized by filipin staining, relative to vehicle control [1]: increase in the amount of cytoplasmic free/unesterified cholesterol
- amount of cytoplasmic free/unesterified cholesterol (filipin staining), time course ([1]; assessed every 24 hours for five days, FIG. 2): Increases in the amount of cytoplasmic free/unesterified cholesterol were observed after a 24 hour culture period and the effect was sustained throughout the five day study period
- number of eggs per adult worm relative to DMSO control or SAHA (NPC1 null worms; 25 μM, FIG. 3C): statistically significant increase in the number of eggs per adult worm

Compound: CCN(CC)CCO[C@H]1CC[C@@]2(C)C(=CC[C@@H]3[C@@H]2CC[C@]2(C)C(=O)CC[C@@H]32)C1 [Compound U18666A]
- amount of cytoplasmic free/unesterified cholesterol as visualized by filipin staining, relative to vehicle control [1]: increase in the amount of cytoplasmic free/unesterified cholesterol
- egg laying deficit of NPC null nematodes (eggs per adult worm) (NPC1 null worms; 75 μM, FIG. 3B): significantly exacerbates the egg laying deficit

Compound: cyclodextrin
- number of eggs per adult worm relative to DMSO control or SAHA (NPC1 null worms; 0.5%, FIG. 3E): statistically significant increase in the number of eggs per adult worm
